{"source": "patent EP0791072B1", "about": "“PROCESS FOR DETERMINING THE ACTIVITY OF SPECIFIC PHOSPHOTYROSINE PHOSPHATASES AND SPECIFIC EFFECTORS THEREOF IN INTACT CELLS” (Max-Planck-Gesellschaft zur Förderung der Wissenschaften …, priority 1994, dated 1996)", "type_in_all_cases": "cell-based, Maus", "key": {"[1]": {"test_system": "PDGF-Rezeptor-gerichtete(n) PTPase(n)"}, "PDGF-Rezeptor": {"test_system": "PDGF-Rezeptor", "assay": "Time course of PDGF receptor phosphotyrosine content in intact Swiss 3T3 cells, PTK inhibitor added after PDGF stimulation", "conditions": "AG 1296 50 µM added after 5 min PDGF stimulation, over incubation time", "text": "(§1) Swiss 3T3 Fibroblasten (Maus) exprimieren PDGFα und PDGFβ-Rezeptoren auf der Zelloberfläche (Hosang et al. (1989)). Die Stimulation der Zellen mit PDGF führt zu einer raschen Autophosphorylierung dieser Rezeptoren an Tyrosinresten. […] Die autophosphorylierten Rezeptoren werden durch PDGF-Rezeptor-gerichtete PTPase(n) rasch dephosphoryliert (Bohmer et al. (1993)). Die Identität der zellulären PTPasen, die diese Reaktion katalysieren, ist nicht bekannt. Ein hochspezifischer Inhibitor für die PDGF-Rezeptor PTK (AG 1296) hemmt deren Aktivität bereits nach sehr kurzer Behandlung der Zellen (2 min) vollständig (Abb. 1). In isolierten Membranen von Swiss 3T3-Zellen beeinflußt der Inhibitor die in den Membranen enthaltenen PTPase(n) für den autophosphorylierten PDGF-Rezeptor in ihrer Aktivität nicht (Abb. 2). Wird der Inhibitor Zellen nach Aktivierung der PDGF-Rezeptor PTK zugesetzt, kann die Dephosphorylierung des PDGF-Rezeptors zeitabhängig verfolgt werden (Abb. 3).\nSwiss 3T3-Zellen wurden in serumfreiem Medium mit PDGF (Abb. 3, Bahn 2-6) oder dem entsprechenden Lösungsmittel (Abb. 3, Bahn 1) behandelt. Nach 5-minütiger Stimulation wurde AG 1296 (50 µM, Abb. 3 B) oder entsprechendes Lösungsmittel (DMSO, Abb. 3 A) zugesetzt. […] Diese Abnahme wird durch die Aktivität der PDGF Rezeptor-gerichteten PTPase in den intakten Zellen bewirkt. Eine graphische Auswertung ist in Abb. 4 gezeigt. […]"}, "PDGF-Rezeptor PTK": {"test_system": "PDGF-Rezeptor PTK", "assay": "Inhibition of PDGF-induced receptor autophosphorylation in intact Swiss 3T3 cells (anti-phosphotyrosine immunoblot)", "conditions": "AG 1296 50 µM, 2 min preincubation, then PDGF-BB 100 ng/ml for 5 min", "text": "as §1"}}}
{"smiles": "CNc1ccc2oc(C[C@H]3O[C@@]4(CC[C@H]3C)O[C@H]([C@H](C)C(=O)c3ccc[nH]3)[C@H](C)C[C@H]4C)nc2c1C(=O)O", "note": "[A 23187, 5-(Methylamino)-2-[[3,9,11-trimethyl-8-[1-methyl-2-oxo-(1H-pyrrol-2-yl)ethyl]-1,7-dioxaspiro[5,5]undec-2-yl]methyl]-4-benoxazolcarbonsäure]", "values": [{"measurement": "Relative PDGF Rezeptor-gerichtete PTPase-Aktivität (% der Kontrolle)", "setting": "[1]", "result": 161, "unit": "% der Kontrolle"}]}
{"smiles": "COc1cc2ncc(-c3ccccc3)nc2cc1OC", "note": "[AG 1296]", "values": [{"measurement": "Phosphotyrosingehalt der PDGF-Rezeptoren", "setting": "PDGF-Rezeptor", "result": "kontinuierlich ab"}, {"measurement": "PDGF-induzierte Autophosphorylierung des Rezeptors", "setting": "PDGF-Rezeptor PTK", "result": "vollständig unterdrückt"}]}
